Source: PubChem BioAssay AID1963977 (Molecular Pharmacology Branch, DTP, NCI, 2024)
pIC50: −log10 of the molar value.

Test system: 624824-186-R-J3-PDC multicell spheroids, viability
Test: Anticancer human tumor 624824-186-R-J3-PDC patient-derived colon adenocarcinoma cell line growth inhibition [PI3K]
Conditions: for pIC50: curve of first compound; for viability, T/C: stronger effect = lower value
Procedure, shortened: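 We assembled tumor spheroids that included a stromal compartment of HUVEC and MSCs, then exposed them to targeted agents alone and together with PI3K pathway inhibitors. Concentration series descended by half-log from clinically achievable Cmax levels. Viability served as the endpoint.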

[1] = second compound 0.00316 µM, first compound 0.00316 µM
[2] = second compound 0.00316 µM, first compound 0.01 µM
[3] = second compound 0.00316 µM, first compound 0.0316 µM
[4] = second compound 0.00316 µM, first compound 0.1 µM
[5] = second compound 0.01 µM, first compound 0.00316 µM
[6] = second compound 0.01 µM, first compound 0.01 µM
[7] = second compound 0.01 µM, first compound 0.0316 µM
[8] = second compound 0.01 µM, first compound 0.1 µM
[9] = second compound 0.0316 µM, first compound 0.00316 µM
[10] = second compound 0.0316 µM, first compound 0.01 µM
[11] = second compound 0.0316 µM, first compound 0.0316 µM
[12] = second compound 0.0316 µM, first compound 0.1 µM
[13] = second compound 0.1 µM, first compound 0.00316 µM
[14] = second compound 0.1 µM, first compound 0.01 µM
[15] = second compound 0.1 µM, first compound 0.0316 µM
[16] = second compound 0.1 µM, first compound 0.1 µM
[17] = second compound 0.316 µM, first compound 0.00316 µM
[18] = second compound 0.316 µM, first compound 0.01 µM
[19] = second compound 0.316 µM, first compound 0.0316 µM
[20] = second compound 0.316 µM, first compound 0.1 µM
[21] = second compound 1 µM, first compound 0.00316 µM
[22] = second compound 1 µM, first compound 0.01 µM
[23] = second compound 1 µM, first compound 0.0316 µM
[24] = second compound 1 µM, first compound 0.1 µM
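Note: spheroids exposed to agents for seven days before luminescence read.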
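Throughout, for viability, T/C: luminescent signal used as a stand-in for spheroid viability; percent viability relative to DMSO vehicle control wells taken as 100%.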

For `CC(C)n1nc(-c2ccc3oc(N)nc3c2)c2c(N)ncnc21` + COc1c(OCCCN2CCOCC2)ccc2c3n(c(=NC(=O)c4cnc(N)nc4)nc12)CCN3, the pIC50 (second compound 0.00316 µM) was < 7.00, the pIC50 (second compound 0.01 µM) was < 7.00 and the pIC50 (second compound 0.0316 µM) was 7.22. For the same compound, the pIC50 (second compound 0.1 µM) was 7.53, the pIC50 (second compound 0.316 µM) was 8.78 and the pIC50 (second compound 1 µM) was > 9.50. The viability, T/C (second compound 0.00316 µM, first compound 0.000316 µM) was 108%, the viability, T/C (second compound 0.00316 µM, first compound 0.001 µM) was 106% and the viability, T/C [1] was 106%. For the same compound, the viability, T/C [2] was 99.2%, the viability, T/C [3] was 89.1% and the viability, T/C [4] was 52.6%. The viability, T/C (second compound 0.01 µM, first compound 0.000316 µM) was 101%, the viability, T/C (second compound 0.01 µM, first compound 0.001 µM) was 102% and the viability, T/C [5] was 109%. The viability, T/C [6] was 95.9%, the viability, T/C [7] was 82.2% and the viability, T/C [8] was 52.2%. The viability, T/C (second compound 0.0316 µM, first compound 0.000316 µM) was 97.8%, the viability, T/C (second compound 0.0316 µM, first compound 0.001 µM) was 96.7% and the viability, T/C [9] was 91.9%. It also gave a viability, T/C [10] of 92.3%, a viability, T/C [11] of 63.6% and a viability, T/C [12] of 39.2%. The viability, T/C (second compound 0.1 µM, first compound 0.000316 µM) was 83.2%, the viability, T/C (second compound 0.1 µM, first compound 0.001 µM) was 80.2% and the viability, T/C [13] was 80.2%. The viability, T/C [14] was 72.1%, the viability, T/C [15] was 48.3% and the viability, T/C [16] was 27.5%. It also gave a viability, T/C (second compound 0.316 µM, first compound 0.000316 µM) of 53.5%, a viability, T/C (second compound 0.316 µM, first compound 0.001 µM) of 48.6% and a viability, T/C [17] of 51.1%. It also gave a viability, T/C [18] of 39.2%, a viability, T/C [19] of 31.5% and a viability, T/C [20] of 22.2%. It also gave a viability, T/C (second compound 1 µM, first compound 0.000316 µM) of 28.5%, a viability, T/C (second compound 1 µM, first compound 0.001 µM) of 28.8% and a viability, T/C [21] of 31.4%. For the same compound, the viability, T/C [22] was 23.9%, the viability, T/C [23] was 24.9% and the viability, T/C [24] was 18.6%.

In the case of `CCN1CCN(Cc2ccc(Nc3ncc(F)c(-c4cc(F)c5nc(C)n(C(C)C)c5c4)n3)nc2)CC1` + COc1c(OCCCN2CCOCC2)ccc2c3n(c(=NC(=O)c4cnc(N)nc4)nc12)CCN3, the pIC50 (second compound 0.00316 µM) was < 6.00, the pIC50 (second compound 0.01 µM) was < 6.00 and the pIC50 (second compound 0.0316 µM) was < 6.00. For the same compound, the pIC50 (second compound 0.1 µM) was 7.22, the pIC50 (second compound 0.316 µM) was > 8.50 and the pIC50 (second compound 1 µM) was > 8.50. It also gave a viability, T/C [1] of 99%, a viability, T/C [2] of 107% and a viability, T/C [3] of 104%. For the same compound, the viability, T/C [4] was 116%, the viability, T/C (second compound 0.00316 µM, first compound 0.316 µM) was 107% and the viability, T/C (second compound 0.00316 µM, first compound 1 µM) was 94.8%. For the same compound, the viability, T/C [5] was 99.2%, the viability, T/C [6] was 94.9% and the viability, T/C [7] was 99.7%. The viability, T/C [8] was 95.2%, the viability, T/C (second compound 0.01 µM, first compound 0.316 µM) was 76.5% and the viability, T/C (second compound 0.01 µM, first compound 1 µM) was 74.7%. For the same compound, the viability, T/C [9] was 99%, the viability, T/C [10] was 99.1% and the viability, T/C [11] was 88.3%. For the same compound, the viability, T/C [12] was 68.5%, the viability, T/C (second compound 0.0316 µM, first compound 0.316 µM) was 57.5% and the viability, T/C (second compound 0.0316 µM, first compound 1 µM) was 61.5%. It also gave a viability, T/C [13] of 81%, a viability, T/C [14] of 73.2% and a viability, T/C [15] of 57.5%. The viability, T/C [16] was 40.8%, the viability, T/C (second compound 0.1 µM, first compound 0.316 µM) was 40.7% and the viability, T/C (second compound 0.1 µM, first compound 1 µM) was 50.5%. The viability, T/C [17] was 48.4%, the viability, T/C [18] was 41.7% and the viability, T/C [19] was 41.5%. The viability, T/C [20] was 27.4%, the viability, T/C (second compound 0.316 µM, first compound 0.316 µM) was 41.7% and the viability, T/C (second compound 0.316 µM, first compound 1 µM) was 52.4%. For the same compound, the viability, T/C [21] was 27.7%, the viability, T/C [22] was 32.4% and the viability, T/C [23] was 23.4%. The viability, T/C [24] was 24.3%, the viability, T/C (second compound 1 µM, first compound 0.316 µM) was 34.9% and the viability, T/C (second compound 1 µM, first compound 1 µM) was 54.8%.
